Where two headings read alike, the source gives them in different places.
Legend:
P-gp (mdr1) = conditions: cited from earlier work
[1] = target: P-glycoprotein (P-gp, ABCB1; MDR1) (Homo sapiens, UniProt P08183); conditions: MDCK-MDR1 cells with and without CsA
P-gp = test: Compartmental models of apical efflux fit to permeability data
[2] = 5C model, asa = 1, lipid content = 10%

Chain of P-glycoprotein (P-gp, ABCB1; MDR1) (P08183 whole entry): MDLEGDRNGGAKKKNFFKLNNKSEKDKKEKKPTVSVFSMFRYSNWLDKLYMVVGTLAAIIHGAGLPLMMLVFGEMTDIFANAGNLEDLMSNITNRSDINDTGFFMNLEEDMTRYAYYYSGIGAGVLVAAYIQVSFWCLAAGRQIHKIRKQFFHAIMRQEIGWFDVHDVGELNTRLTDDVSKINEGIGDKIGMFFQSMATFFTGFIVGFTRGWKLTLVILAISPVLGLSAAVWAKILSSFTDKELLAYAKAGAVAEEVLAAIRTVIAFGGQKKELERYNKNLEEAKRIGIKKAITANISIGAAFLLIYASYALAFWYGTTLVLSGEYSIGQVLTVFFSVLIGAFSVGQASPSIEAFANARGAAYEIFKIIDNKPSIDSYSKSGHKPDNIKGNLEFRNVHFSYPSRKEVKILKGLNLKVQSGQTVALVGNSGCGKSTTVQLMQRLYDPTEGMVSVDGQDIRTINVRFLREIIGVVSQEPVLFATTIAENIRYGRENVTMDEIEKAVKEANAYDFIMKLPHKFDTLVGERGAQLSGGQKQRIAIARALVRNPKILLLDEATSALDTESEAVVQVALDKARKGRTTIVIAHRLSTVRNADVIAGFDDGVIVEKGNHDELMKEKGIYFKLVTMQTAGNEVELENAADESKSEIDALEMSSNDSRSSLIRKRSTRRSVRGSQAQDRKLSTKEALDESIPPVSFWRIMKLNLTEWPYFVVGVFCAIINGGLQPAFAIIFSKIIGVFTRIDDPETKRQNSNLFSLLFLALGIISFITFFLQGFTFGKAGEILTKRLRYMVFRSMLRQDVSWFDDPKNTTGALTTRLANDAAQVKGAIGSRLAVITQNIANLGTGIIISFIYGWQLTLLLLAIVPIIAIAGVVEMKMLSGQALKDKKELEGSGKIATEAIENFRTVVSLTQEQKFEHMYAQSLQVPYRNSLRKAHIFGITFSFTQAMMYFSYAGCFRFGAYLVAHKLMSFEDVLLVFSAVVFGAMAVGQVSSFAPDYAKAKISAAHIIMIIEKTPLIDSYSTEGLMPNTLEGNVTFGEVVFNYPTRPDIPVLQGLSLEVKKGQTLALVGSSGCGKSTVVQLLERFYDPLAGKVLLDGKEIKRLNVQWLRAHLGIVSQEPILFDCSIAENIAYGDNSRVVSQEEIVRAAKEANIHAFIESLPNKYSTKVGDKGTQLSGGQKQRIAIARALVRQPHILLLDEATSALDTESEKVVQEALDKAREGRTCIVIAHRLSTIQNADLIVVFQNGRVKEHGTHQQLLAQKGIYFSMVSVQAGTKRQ

For Cc1nccn1CC1CCc2c(c3ccccc3n2C)C1=O (stereo not shown) [Ondansetron], the “Brain Conc. Ratio mdr1(−/−)/mdr1(+/+)” value (P-gp (mdr1); mice, brain) is listed as 4.0 and the “Liver Conc. Ratio mdr1(−/−)/mdr1(+/+)” value (P-gp (mdr1); mice, liver) is listed as 0.9.

In the case of Cc1c(O)cccc1C(=O)N[C@@H](CSc1ccccc1)[C@H](O)CN1C[C@H]2CCCC[C@H]2C[C@H]1C(=O)NC(C)(C)C [Nelfinavir], the “Brain Conc. Ratio mdr1(−/−)/mdr1(+/+)” value (P-gp (mdr1); mice, brain) is listed as 16.1 and the “Liver Conc. Ratio mdr1(−/−)/mdr1(+/+)” value (P-gp (mdr1); mice, liver) is listed as 3.0.

With CN(C)C(=O)C(CCN1CCC(O)(c2ccc(Cl)cc2)CC1)(c1ccccc1)c1ccccc1 [Loperamide] the “permeability (qualitative)” value [1] was “high permeability”.

In the case of O=C(O)C[C@H](O)C[C@H](O)/C=C/c1c(C2CC2)nc2ccccc2c1-c1ccc(F)cc1 [Pitavastatin], the “Brain Conc. Ratio mdr1(−/−)/mdr1(+/+)” value (P-gp (mdr1); mice, brain) is listed as 1.3, the “Liver Conc. Ratio mdr1(−/−)/mdr1(+/+)” value (P-gp (mdr1); mice, liver) is listed as 0.88 and the “CLae (active apical efflux clearance)” value (P-gp; [2]) is listed as 0.030 µL/min. For the same molecule, the “CLi (diffusion clearance into an explicit membrane compartment)” value (P-gp; [2]) was 3.5 µL/min.

For C=CC[C@@H]1/C=C(\C)C[C@H](C)C[C@H](OC)[C@H]2O[C@@](O)(C(=O)C(=O)N3CCCC[C@H]3C(=O)O[C@H](/C(C)=C/[C@@H]3CC[C@@H](O)[C@H](OC)C3)[C@H](C)[C@@H](O)CC1=O)[C@H](C)C[C@@H]2OC [Tacrolimus], the “Brain Conc. Ratio mdr1(−/−)/mdr1(+/+)” value (P-gp (mdr1); mouse, in vivo) is listed as 6.0 and the “Liver Conc. Ratio mdr1(−/−)/mdr1(+/+)” value (P-gp (mdr1); mouse, in vivo) is listed as 1.7.

In the case of CN(C(=O)C(c1ccccc1)c1ccccc1)[C@H](CN1CC[C@H](O)C1)c1ccccc1 [Asimadoline], the “Brain Conc. Ratio mdr1(−/−)/mdr1(+/+)” value (P-gp (mdr1); mice, brain) is given as 9.1 and the “Liver Conc. Ratio mdr1(−/−)/mdr1(+/+)” value (P-gp (mdr1); mice, liver) is given as 1.1.

In the case of CC[C@]1(O)C[C@@H]2CN(CCc3c([nH]c4ccccc34)[C@@](C(=O)OC)(c3cc4c(cc3OC)N(C)[C@H]3[C@@](O)(C(=O)OC)[C@H](OC(C)=O)[C@]5(CC)C=CCN6CC[C@]43[C@@H]65)C2)C1 [Vinblastine], the “Brain Conc. Ratio mdr1(−/−)/mdr1(+/+)” value (P-gp (mdr1); mice, brain) is given as 22.4 and the “Liver Conc. Ratio mdr1(−/−)/mdr1(+/+)” value (P-gp (mdr1); mice, liver) is given as 1.8.

For CO[C@H]1C[C@H](O[C@@H]2/C(C)=C/C[C@@H]3C[C@@H](C[C@]4(CC[C@H](C)[C@@H](C5CCCCC5)O4)O3)OC(=O)[C@@H]3C=C(C)/C(=N/O)[C@H]4OC/C(=C\C=C\[C@@H]2C)[C@]43O)O[C@@H](C)[C@@H]1O [Selamectin], the “Brain Conc. Ratio mdr1(−/−)/mdr1(+/+)” value (P-gp (mdr1); mouse, in vivo) is given as 4.9 and the “Liver Conc. Ratio mdr1(−/−)/mdr1(+/+)” value (P-gp (mdr1); mouse, in vivo) is given as 0.5.

In the case of C/C=C/C[C@@H](C)C(=O)[C@H]1C(=O)N[C@@H](C(C)C)C(=O)N(C)CC(=O)N(C)[C@@H](CC(C)C)C(=O)N[C@@H](C(C)C)C(=O)N(C)[C@@H](CC(C)C)C(=O)N[C@@H](C)C(=O)N[C@H](C)C(=O)N(C)[C@@H](CC(C)C)C(=O)N(C)[C@@H](CC(C)C)C(=O)N(C)[C@@H](C(C)C)C(=O)N1C [SDZ PSC 833], the “Brain Conc. Ratio mdr1(−/−)/mdr1(+/+)” value (P-gp (mdr1); mice, brain) is given as 2.1 and the “Liver Conc. Ratio mdr1(−/−)/mdr1(+/+)” value (P-gp (mdr1); mice, liver) is given as 0.9.

For Nc1cc(N2CCCCC2)nc(N)[n+]1[O-] [Minoxidil], the “CLae (active apical efflux clearance)” value (P-gp) was 0.021 µL/min.

For Cc1nnc2n1-c1sc(CCC(=O)N3CCOCC3)cc1C(c1ccccc1Cl)=NC2 [Apafant], the “Brain Conc. Ratio mdr1(−/−)/mdr1(+/+)” value (P-gp (mdr1); mice, brain) is given as 73.6 and the “Liver Conc. Ratio mdr1(−/−)/mdr1(+/+)” value (P-gp (mdr1); mice, liver) is given as 4.5.

Reference: article PMC3946900 (Pharmaceutical research, 2013)
